Source: patent publication EP0103381B1, “Substituted anthra(1,9-cd)pyrazol-6(2H)-ones” (WARNER-LAMBERT COMPANY, priority 1982, dated 1984)

How the values were obtained:
Colon 38 (BDF1) = test: broad spectrum antitumor activity in mice, Colon 38; type: in vivo; details: SC/IP, Q01D × 09, Dose 16 mg/kg
Source text: (§1) Broad Spectrum Antitumor Activity^* of 2-[2-(Diethylamino)ethyl]-7,10-dihydroxy-5-[[2-[(2-hydroxyethyl)amino]ethyl]amino]anthra[1-9-cd]pyrazol-6(2H)-one Dihydrochloride in Mice

ADJ—PC6 Plasmacytoma = test: broad spectrum antitumor activity in mice, ADJ-PC6 plasmacytoma; type: in vivo; details: IP/IP
Source text: as §1

B16 Melanoma (B6C3F1) = test: broad spectrum antitumor activity in mice, B16 melanoma (B6C3F1); type: in vivo; details: I-/IP
Source text: as §1

[1] = tested on: lymphocytic leukemia P388; test: in vivo lymphocytic leukemia P388 test; design: species or system mice; details: Mus musculus, P388, ip, 720 h, two single doses four days apart, read-out: T/C × 100 (Percent)
In short: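 CD2F mice (6–7 per group) were inoculated intraperitoneally with P388 leukemia ascitic cells. Compounds were then given i.p. as two doses four days apart at various levels. Survival over 30 days was expressed as treated/control time ratio, efficacy criterion T/C×100 >125%.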

B16 Melanoma (BDF1) = test: broad spectrum antitumor activity in mice, B16 melanoma (BDF1); type: in vivo; details: IP/IP
Source text: as §1

Escherichia coli = test: agar plate paper-disc inhibition zone screening; type: cell-based; details: Dose 0.5 mg/ml, read-out: Inhibition Zone Diameter mm (Dose mg/ml) E. Coli
In short: (§2)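 Overnight bacterial cultures were suspended in 0.85% saline to 20-35% light transmittancy and mixed into molten assay agar poured in trays. Compounds at 3,000, 1,000, 500, 100 and 10 mcg/ml (solvent <10%) were applied to 12.7 mm paper discs; after 18-20 h at 37°C, inhibition zone diameters were measured in mm.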

Aerobacter aerogenes = test: agar plate paper-disc inhibition zone screening; type: cell-based; details: Klebsiella aerogenes; Dose 1.0 mg/ml; read-out: Inhibition Zone Diameter mm (Dose mg/ml) A. Aerogenes
In short: as §2

Bacillus subtilis = test: agar plate paper-disc inhibition zone screening; type: cell-based; details: Dose 1.0 mg/ml, read-out: Inhibition Zone Diameter mm (Dose mg/ml) B. Subtilis
In short: as §2

Streptococcus faecalis = test: agar plate paper-disc inhibition zone screening; type: cell-based; details: Enterococcus faecalis; Dose 1.0 mg/ml; read-out: Inhibition Zone Diameter mm (Dose mg/ml) S. Faecalis
In short: as §2

Penicillium avellaneum = test: agar plate paper-disc inhibition zone screening; type: cell-based; details: Hamigera avellanea; Dose 3.0 mg/ml; read-out: Inhibition Zone Diameter mm (Dose mg/ml) P. Avellaneum
In short: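 Mycelia and spores from a six-day 28°C agar culture, suspended in saline with 0.05% Tween 80 at 20% transmittancy, were seeded into molten agar trays. Compounds at 3,000, 1,000, 500, 100 and 10 mcg/ml (solvent <10%) were applied on 12.7 mm paper discs. After at least 20-24 h incubation, inhibition zone diameter was measured in mm.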

CCN(CC)CCn1nc2c3c(c(NCCNCCO)ccc31)C(=O)c1c(O)ccc(O)c1-2 [Example 28, 2-[2-(Diethylamino)ethyl]-7,10-dihydroxy-5-[[2-[(2-hydroxyethyl)amino]ethyl]amino]anthra[1,9-cd]pyrazol-6(2H)-one]
% Tumor Reduction (Colon 38 (BDF1)): 71% | T/C × 100 (Percent) (ADJ—PC6 Plasmacytoma; Q04D × 03, Dose 2 mg/kg): 207% | T/C × 100 (Percent) (ADJ—PC6 Plasmacytoma; Q04D × 03, Dose 4 mg/kg): 216% | T/C × 100 (Percent) (ADJ—PC6 Plasmacytoma; Q04D × 03, Dose 8 mg/kg): 235% | T/C × 100 (Percent) (ADJ—PC6 Plasmacytoma; Q04D × 03, Dose 16 mg/kg): 163% | T/C × 100 (Percent) (B16 Melanoma (B6C3F1); Q01D × 09, Dose 3 mg/kg): 148% | T/C × 100 (Percent) (B16 Melanoma (B6C3F1); Q01D × 09, Dose 6 mg/kg): 189% | response vs control in vivo at 0.78 mg/kg ([1]; P388, Dose 0.78 mg/kg intraperitoneally): 140% | response vs control in vivo at 1.56 mg/kg ([1]; P388, Dose 1.56 mg/kg intraperitoneally): 148% | response vs control in vivo at 3.12 mg/kg ([1]; P388, Dose 3.12 mg/kg intraperitoneally): 164% | response vs control in vivo at 6.25 mg/kg ([1]; P388, Dose 6.25 mg/kg intraperitoneally): 180% | T/C × 100 (Percent) (B16 Melanoma (BDF1); Q01D × 09, Dose 4 mg/kg): 151% | T/C × 100 (Percent) (B16 Melanoma (BDF1); Q01D × 09, Dose 8 mg/kg): 176% | zone of inhibition at 500 µg/mL (Escherichia coli): 14 mm | zone of inhibition at 1000 µg/mL (Aerobacter aerogenes): 14 mm | zone of inhibition at 1000 µg/mL (Bacillus subtilis): 15 mm | zone of inhibition at 1000 µg/mL (Streptococcus faecalis): 14 mm | zone of inhibition at 3000 µg/mL (Penicillium avellaneum): 0 mm
